For 41 substances, IC50 results are on record in patent US20240360179A1, “STAPLED PEPTIDES AND METHODS THEREOF” (FOG PHARMACEUTICALS, INC., priority 2021, published 2024).

pIC50: −log10 of the molar value.

The assay concerns COLO320DM cells. Kind of assay: COLO320DM proliferation assay (CellTiter-Glo). Format: cell-based, human. The note with it: read-out: COLO320DM Proliferation Abs IC50. The method, boiled down:
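COLO320DM cells, 250 cells/well in RPMI-1640 with 4% FBS, attached 18-22 h, then exposed 96 h at 37 °C, 5% CO2 to 7-point 1/2 dilutions from 20 uM to 313 nM. Viability by CellTiter-Glo luminescence; IC50 derived from the dose curve.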
(In general: ATP-based viability assays read luminescence as a measure of living cells.)
Consider “Ac-PL3-Asp-Ile-B5-Asp-3COOHF-Phe-Ala-Phe-Lys*3-PyrS2-Phe-34MeF-GlnR*3-NH2 [I-1107]”, for which the pIC50 was at least 5.00.

On to “Ac-PL3-Asp-Npg-B5-3COOHF-Asp-Aib-Ala-Phe-Lys*3-PyrS2-3Thi-BztA-GlnR*3-Ala-NH2 [I-742]”, for which the pIC50 was below 4.70.

As to “Ac-PL3-Asp-Npg-B5-Asp-3COOHF-Aib-Ala-Phe-Lys*3-PyrS2-2FF-34ClF-GlnR*3-NH2 [I-1537]”, the pIC50 was at least 5.00.

On to “Ac-PL3-Asp-Npg-B5-Asp-3COOHF-Aib-Ala-Phe-Lys*3-PyrS2-2NH2F-BztA-GlnR*3-Ala-NH2 [I-1736]”, for which the pIC50 is at least 5.00. As for “Ac-PL3-Asp-Npg-B5-Asp-3COOHF-Aib-Ala-Phe-Lys*3-PyrS2-3Thi-34ClF-GlnR*3-Ala-Ala-Ala-[mPEG8]-Lys [I-1707]”, the pIC50 was at least 5.00. In the case of “Ac-PL3-Asp-Npg-B5-Asp-3COOHF-Aib-Ala-Phe-Lys*3-PyrS2-3Thi-34ClF-GlnR*3-Ala-Ala-Ala-[mPEG37]-Lys [I-1708]” it was at least 5.00; in that of “Ac-PL3-Asp-Npg-B5-Asp-3COOHF-Aib-Ala-Phe-Lys*3-PyrS2-3Thi-34ClF-GlnR*3-NH2 [I-867]”, at least 5.00; in that of “Ac-PL3-Asp-Npg-B5-Asp-3COOHF-Aib-Ala-Phe-Lys*3-PyrS2-3Thi-34ClF-GlnR*3-Pro-NH2 [I-868]”, at least 5.00. On to “Ac-PL3-Asp-Npg-B5-Asp-3COOHF-Aib-Ala-Phe-Lys*3-PyrS2-3Thi-34ClF-GlnR*3-Ser-NH2 [I-869]”, for which the pIC50 is at least 5.00. In the case of “Ac-PL3-Asp-Npg-B5-Asp-3COOHF-Aib-Ala-Phe-Lys*3-PyrS2-3Thi-BztA-GlnR*3-Ala-Ala-Arg-Ala-Ala-Ala-Ala-NH2 [I-1155]” it was at least 5.00; in that of “Ac-PL3-Asp-Npg-B5-Asp-3COOHF-Aib-Ala-Phe-Lys*3-PyrS2-3Thi-BztA-GlnR*3-Ala-Ala-Arg-Ala-Ala-Ala-Arg-NH2 [I-1157]”, at least 5.00. As for “Ac-PL3-Asp-Npg-B5-Asp-3COOHF-Aib-Ala-Phe-Lys*3-PyrS2-3Thi-BztA-GlnR*3-Ala-Ala-Leu-Leu-NH2 [I-806]”, the pIC50 is at least 5.00. Consider “Ac-PL3-Asp-Npg-B5-Asp-3COOHF-Aib-Ala-Phe-Lys*3-PyrS2-3Thi-BztA-GlnR*3-Ala-Ala-Leu-NH2 [I-805]”, for which the pIC50 is at least 5.00. As for “Ac-PL3-Asp-Npg-B5-Asp-3COOHF-Aib-Ala-Phe-Lys*3-PyrS2-3Thi-BztA-GlnR*3-Ala-Ala-Lys-Ala-Ala-Ala-Lys-NH2 [I-1158]”, the pIC50 is at least 5.00.

In the case of “Ac-PL3-Asp-Npg-B5-Asp-3COOHF-Aib-Ala-Phe-Lys*3-PyrS2-3Thi-BztA-GlnR*3-Ala-Ala-Lys-Leu-Pro-Val-nLeu-NH2 [I-815]”, the pIC50 was at least 5.00. Turning to “Ac-PL3-Asp-Npg-B5-Asp-3COOHF-Aib-Ala-Phe-Lys*3-PyrS2-3Thi-BztA-GlnR*3-Ala-Ala-Val-Pro-Ala-Leu-Arg-NH2 [I-817]”, the pIC50 was at least 5.00. For the substance “Ac-PL3-Asp-Npg-B5-Asp-3COOHF-Aib-Ala-Phe-Lys*3-PyrS2-3Thi-BztA-GlnR*3-Ala-Ala-Val-Pro-Thr-Leu-Lys-NH2 [I-813]”, the pIC50 is at least 5.00. Regarding “Ac-PL3-Asp-Npg-B5-Asp-3COOHF-Aib-Ala-Phe-Lys*3-PyrS2-3Thi-BztA-GlnR*3-Ala-Arg-Ala-Ala-Ala-Arg-Ala-NH2 [I-1156]”, the pIC50 was at least 5.00. For “Ac-PL3-Asp-Npg-B5-Asp-3COOHF-Aib-Ala-Phe-Lys*3-PyrS2-3Thi-BztA-GlnR*3-Ala-Lys-Leu-Pro-Val-nLeu-NH2 [I-814]”, the pIC50 was at least 5.00.

On to “Ac-PL3-Asp-Npg-B5-Asp-3COOHF-Aib-Ala-Phe-Lys*3-PyrS2-3Thi-BztA-GlnR*3-Ala-Val-Pro-Ala-Leu-Arg-NH2 [I-816]”, for which the pIC50 is at least 5.00. With “Ac-PL3-Asp-Npg-B5-Asp-3COOHF-Aib-Ala-Phe-Lys*3-PyrS2-3Thi-BztA-GlnR*3-Ala-Val-Pro-Thr-Leu-Lys-NH2 [I-812]”, the pIC50 was at least 5.00. In the case of “Ac-PL3-Asp-Npg-B5-Asp-3COOHF-Aib-Ala-Phe-Lys*3-PyrS2-3Thi-BztA-GlnR*3-Leu-Ser-NH2 [I-785]” it was at least 5.00; in that of “Ac-PL3-Asp-Npg-B5-Asp-3COOHF-Aib-Ala-Phe-Lys*3-PyrS2-3Thi-BztA-GlnR*3-Pro-NH2 [I-719]”, at least 5.00. Take “Ac-PL3-Asp-Npg-B5-Asp-3COOHF-Aib-Ala-Phe-Lys*3-PyrS2-3Thi-BztA-GlnR*3-Ser-NH2 [I-721]”: the pIC50 was at least 5.00. As to “Ac-PL3-Asp-Npg-B5-Asp-3COOHF-Aib-Ala-Phe-Lys*3-PyrS2-3Thi-BztA-GlnR*3-[mPEG4]Lys-NH2 [I-1181]”, the pIC50 was below 4.70. In the case of “Ac-PL3-Asp-Npg-B5-Asp-3COOHF-Aib-Ala-Phe-Lys*3-PyrS2-3Thi-BztA-GlnR*3-[mPEG8]Lys-NH2 [I-1182]” it was below 4.70; in that of “Ac-PL3-Asp-Npg-B5-Asp-3COOHF-Aib-Ala-Phe-Lys*3-PyrS2-3Thi-BztA-GlnR*3-[mPEG16]Lys-NH2 [I-1183]”, at least 5.00; in that of “Ac-PL3-Asp-Npg-B5-Asp-3COOHF-Aib-Ala-Phe-Lys*3-PyrS2-3Thi-BztA-GlnR*3-dPro-NH2 [I-720]”, at least 5.00. Consider “Ac-PL3-Asp-Npg-B5-Asp-3COOHF-Aib-Ala-Phe-Lys*3-PyrS2-3Thi-BztA-hGlnR*3-NH2 [I-786]”, for which the pIC50 is at least 5.00. Consider “Ac-PL3-Asp-Npg-B5-Asp-3COOHF-Aib-Ala-Phe-Lys*3-PyrS2-Phe-34ClF-GlnR*3-NH2 [I-871]”, for which the pIC50 was at least 5.00. In the case of “Ac-PL3-Asp-Npg-B5-Asp-3COOHF-Aib-Ala-Phe-Lys*3-PyrS2-Phe-34ClF-GlnR*3-Pro-NH2 [I-872]”, the pIC50 is at least 5.00. In the case of “Ac-PL3-Asp-Npg-B5-Asp-3COOHF-Aib-Ala-Phe-Lys*3-PyrS2-Phe-34MeF-GlnR*3-NH2 [I-1103]” it was at least 5.00; in that of “Ac-PL3-Asp-Npg-B5-Asp-3COOHF-Aib-Ala-Phe-Lys*3-PyrS2-[2PyAc]2NH2F-BztA-GlnR*3-Ala-NH2 [I-1740]”, at least 5.00. For the substance “Ac-PL3-Asp-Npg-B5-Asp-3COOHF-Aib-Ala-Phe-Lys*3-PyrS2-[2PyzCO]2NH2F-BztA-GlnR*3-Ala-NH2 [I-1755]”, the pIC50 is below 4.70. With “Ac-PL3-Asp-Npg-B5-Asp-3COOHF-Aib-Ala-Phe-Lys*3-PyrS2-[3PyPrpc]2NH2F-BztA-GlnR*3-Ala-NH2 [I-1742]”, the pIC50 was 4.70 to 5.00. Take “Ac-PL3-Asp-Npg-B5-Asp-3COOHF-Aib-Ala-Phe-Lys*3-PyrS2-[4PyPrpc]2NH2F-BztA-GlnR*3-Ala-NH2 [I-1743]”: the pIC50 is 4.70 to 5.00.

Regarding “Ac-PL3-Asp-Npg-B5-Asp-3COOHF-Aib-Ala-Phe-Lys*3-PyrS2-[15PyraPy]2NH2F-BztA-GlnR*3-Ala-NH2 [I-1752]”, the pIC50 is at least 5.00. Consider “Ac-PL3-Asp-Npg-B5-Asp-3COOHF-Aib-Ala-Phe-Lys*3-PyrS2-[MorphAc]2NH2F-BztA-GlnR*3-Ala-NH2 [I-1753]”, for which the pIC50 was below 4.70. In the case of “Ac-PL3-Asp-Npg-B5-Asp-3COOHF-Aib-Ala-Phe-Lys*3-PyrS2-[Nic]2NH2F-BztA-GlnR*3-Ala-NH2 [I-1754]”, the pIC50 was below 4.70.

Turning to “Ac-PL3-Asp-Npg-B5-Asp-3COOHF-Aib-Ala-Phe-Lys*3-PyrS2-hCbA-BztA-GlnR*3-Val-Glu-Ala-NH2 [I-1345]”, the pIC50 is at least 5.00. In the case of “Ac-PL3-Asp-Npg-B5-Asp-3COOHF-Aib-Ala-Phe-Lys*3-PyrS2-hCha-34ClF-GlnR*3-Val-Glu-Ala-NH2 [I-1350]” it was at least 5.00.
